Laboratory results taken from PubChem BioAssay (NCI).
Several values for one entry are separate records, joined by “and”; a condition that tells them apart may be missing. Identical values can stand only once.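 Dose response: 5 concentrations. Exposure: 48 h. Format: 96-well plates. Endpoint: linear interpolation; highest concentration if not reached. GI50: concentration for 50% inhibition of growth. The concentration for full growth arrest is given as TGI.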

Columns and labels:
Experiment in all cases: inhibition of tumour cell growth, NCI panel, 48 h
[1] = system: HCT-116 colon
[2] = system: HOP-62 NSCLC
[3] = system: KM12 colon
[4] = system: LOX IMVI melanoma
[5] = system: RXF 393 renal
[6] = system: SF-268 CNS
[7] = system: SW-620 colon
[8] = system: U251 CNS
[9] = system: UACC-257 melanoma
[10] = system: MDA-MB-435

Structure (SMILES) | GI50 [1] [µM] | TGI [1] [µM] | GI50 [2] [µM] | TGI [2] [µM] | GI50 [3] [µM] | TGI [3] | GI50 [4] [µM] | TGI [4] [µM] | GI50 [5] [µM] | TGI [5] [µM] | GI50 [6] [µM] | TGI [6] [µM] | GI50 [7] [µM] | TGI [7] [µM] | GI50 [8] [µM] | TGI [8] [µM] | GI50 [9] [µM] | TGI [9] [µM] | GI50 [10] [µM] | TGI [10] [µM]
COc1ccc(-c2conc2-c2ccccc2)cc1 | 0.318 | > 100 | 0.43 | > 100 | 0.108 | 11 µM | 0.612 | > 100 | 0.249 | > 100 | 1.67 | > 100 | 0.081 | > 100 | 0.468 | > 100 | 18.3 | > 100 |  | 
OCCN(CCO)c1ncnc2c1sc(=S)n2-c1ccccc1 |  | > 100 |  | > 100 |  | > 100 µM |  | > 100 |  | > 100 |  | > 100 |  | > 100 |  | > 100 |  | > 100 |  | 
C(/C=C/N1CCCC1)=C\c1nc(N2CCCC2)c2ccccc2n1 |  | 33.8 |  | 35.2 |  | > 100 µM |  | 32 |  |  |  | 41.7 |  | 29.8 |  |  |  | > 100 |  | 
COC(=O)Cc1cc(=O)oc2c1C(=O)CCC2 |  | > 100 |  | > 100 |  | > 100 µM |  | > 100 |  | > 100 |  | > 100 |  | > 100 |  | > 100 |  | > 100 |  | 
COc1ccccc1-c1nccc(COc2ccccc2C[C@@H](Oc2ncnc3sc(-c4ccc(F)cc4)c(-c4ccc(OCCN5CCN(C)CC5)c(Cl)c4C)c23)C(=O)O)n1 | 2.43 | 6.55 | 2.39 | 7.21 | 3.33 | 12.1 µM |  |  | 0.61 | 2.16 | 3.69 | 17.5 | 2.34 | 6.88 | 1.88 | 4.15 | 3.01 | 11.2 | 0.45 | 2.21
O=C1[C@H]2ON(c3ccccc3)C(c3cccc([N+](=O)[O-])c3)[C@H]2C(=O)N1c1ccc(Cc2ccc(N3C(=O)[C@@H]4ON(c5ccccc5)C(c5cccc([N+](=O)[O-])c5)[C@@H]4C3=O)cc2)cc1 (stereo partly drawn) |  | > 100 |  | > 100 |  | > 100 µM |  | > 100 |  | > 100 |  | > 100 |  | > 100 |  | > 100 |  | > 100 |  | 
COc1cc2c3c(c1OC)/C(=N/OS(=O)(=O)c1ccc(C)cc1)CC3N(S(=O)(=O)c1ccc(C)cc1)CC2 (stereo not drawn) |  | > 100 |  | > 100 |  | > 100 µM |  | > 100 |  | > 100 |  | > 100 |  | > 100 |  | > 100 |  | > 100 |  | 
CCOc1ccccc1NC(=O)CCC(=O)NN |  | > 100 |  | > 100 |  | > 100 µM |  | > 100 |  | > 100 |  | > 100 |  | > 100 |  | > 100 |  | > 100 |  | 
COC(=O)C1=C(C(=O)OC)N(C(C)C)[C@H]2C(C(=O)OC)=C(C(=O)OC)N(C(C)C)[C@@H]12 |  | > 100 |  | > 100 |  | > 100 µM |  | > 100 |  | > 100 |  | > 100 |  | > 100 |  | > 100 |  | > 100 |  | 
O=c1c2ccccc2c(=O)c2c1sc1c(=O)c3ccc(O)cc3c(=O)c12 | 0.651 | 3.9 | 0.15 | 0.285 | 2.05 | 8.24 µM |  |  | 1.63 | 4.3 | 1.04 | 7.62 | 0.436 | 1.56 | 1.01 | 2.39 | 0.28 | 0.736 | 0.173 | 0.326
O=C1OC(c2ccc(Cl)c3ccccc23)c2ccccc21 (stereo not drawn) |  | > 100 |  | > 100 |  | > 100 µM |  |  |  | > 100 |  | > 100 |  |  |  | > 100 |  | > 100 |  | 
COc1cc2c(c(OC)c1OC)-c1ccc(SC)c(=O)cc1[C@@H](NC(=O)c1ccc(F)cc1)CC2 | < 0.01 | < 0.01 | < 0.01 | 39.9 | < 0.01 | 0.0871 µM and 0.0284 µM |  |  |  |  | < 0.01 | 16.8 | < 0.01 | > 100 | < 0.01 | 0.0113 |  | > 100 |  | 
COc1cc(/C=C2/C(=O)N(C(=O)c3ccccc3O)N=C2C)ccc1O |  | > 100 |  | > 38.9 |  | > 100 µM |  | > 70.6 |  |  |  | > 100 |  | > 100 |  | > 100 |  | > 100 |  | > 100
CCOC(=O)c1cc(C(=O)O)c(=O)n2c1[nH]c1ccccc12 |  | > 100 |  | > 100 |  | > 100 µM |  |  |  | > 100 |  | > 100 |  | > 100 |  | > 100 |  | > 100 |  | 
CCCC/C=C1\CCC(CN2CCCC2)C1=O (stereo not drawn) |  | 27.3 |  | 33.3 |  | 8.28 µM |  | 21.7 |  |  |  | 29.9 |  | 4.9 |  | 19.6 |  | 32.8 |  | 
O=C(NOC(=O)c1ccc([N+](=O)[O-])cc1)c1ccc(Cl)cc1 |  | > 100 |  | > 100 |  | > 100 µM |  |  |  | > 100 |  | > 100 |  | > 100 |  | > 100 |  | > 100 |  | 
COc1ccc(C(=O)/C=C/c2ccc(OCCCCCCCCCCOc3ccc(/C=C/C(=O)c4ccc(OC)c(OC)c4)cc3)cc2)c(OC)c1 |  | > 100 |  | > 100 |  | > 100 µM |  |  |  | > 100 |  | > 100 |  | > 100 |  | > 100 |  | > 100 |  | > 100
C=C1c2ccccc2N(S(=O)(=O)c2ccc(C)cc2)C12CCCCC2 |  | > 100 |  | > 100 |  | > 100 µM |  | > 100 |  | > 100 |  | > 100 |  | > 100 |  | > 100 |  | > 100 |  | 
O=C(O)C(CS)N=Cc1nc(-c2ccccc2)oc1O (stereo not drawn) |  | > 100 |  | > 100 |  |  |  | > 100 |  | > 100 |  | > 100 |  | > 100 |  | > 100 |  | > 100 |  | 
Cc1nnc(N=Nc2c(O)[nH]c3ccccc23)[nH]c1=O |  | > 100 |  | > 100 |  | > 100 µM |  | > 100 |  |  |  | > 100 |  | > 100 |  | > 100 |  | > 100 |  | > 100
